In patent US11524966B1 (Valo Early Discovery, Inc., priority 2017, dated 2022):
Read-outs that look alike come from different tables or passages of the source.

Biological target: T1, USP25 (USP25-His6, Boston Biochem E-546) (Homo sapiens, UniProt Q9UHP3)
T1 construct: His6; purchased Boston Biochem E-546
T1 sequence (Q9UHP3 1-1055): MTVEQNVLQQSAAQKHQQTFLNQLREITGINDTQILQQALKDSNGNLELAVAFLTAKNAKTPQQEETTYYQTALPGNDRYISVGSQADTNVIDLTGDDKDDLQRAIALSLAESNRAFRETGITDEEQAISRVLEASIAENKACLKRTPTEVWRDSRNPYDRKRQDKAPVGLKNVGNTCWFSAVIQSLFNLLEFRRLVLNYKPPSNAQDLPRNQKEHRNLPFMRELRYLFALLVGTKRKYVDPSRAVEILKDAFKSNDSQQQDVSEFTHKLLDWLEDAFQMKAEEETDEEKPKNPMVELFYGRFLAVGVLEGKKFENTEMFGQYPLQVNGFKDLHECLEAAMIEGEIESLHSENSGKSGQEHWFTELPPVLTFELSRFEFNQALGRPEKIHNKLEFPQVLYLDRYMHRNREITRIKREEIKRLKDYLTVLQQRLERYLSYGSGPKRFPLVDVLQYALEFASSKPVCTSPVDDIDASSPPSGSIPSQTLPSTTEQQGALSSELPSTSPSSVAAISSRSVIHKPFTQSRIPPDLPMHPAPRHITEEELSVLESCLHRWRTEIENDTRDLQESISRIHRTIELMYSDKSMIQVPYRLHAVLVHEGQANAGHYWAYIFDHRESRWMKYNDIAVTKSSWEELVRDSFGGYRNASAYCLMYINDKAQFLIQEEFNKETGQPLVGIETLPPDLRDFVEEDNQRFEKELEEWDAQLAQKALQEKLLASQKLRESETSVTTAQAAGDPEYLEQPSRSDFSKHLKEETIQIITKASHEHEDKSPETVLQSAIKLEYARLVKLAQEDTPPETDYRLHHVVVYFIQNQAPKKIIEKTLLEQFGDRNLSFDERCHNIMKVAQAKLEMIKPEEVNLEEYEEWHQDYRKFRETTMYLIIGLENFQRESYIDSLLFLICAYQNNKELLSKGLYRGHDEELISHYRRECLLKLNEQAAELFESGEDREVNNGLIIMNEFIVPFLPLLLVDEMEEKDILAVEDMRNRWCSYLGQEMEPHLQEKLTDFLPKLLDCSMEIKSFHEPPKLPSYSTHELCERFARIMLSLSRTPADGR
Test: Ubiquitin-Rhodamine 110 Assay for USP25 Activity, Example A-2
Assay type: biochemical
Conditions: Ubiquitin-Rhodamine 110 assay, read-out: USP25 A-2 IC50 range
Procedure, shortened: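 Fluorescence (ex 485, em 535 nm) of cleaved ubiquitin-rhodamine 110 (25 nM, below Km) gave IC50 via 4-parameter logistic fit. Reaction: 45 min, room temperature, citric acid stop, after 30 min compound preincubation with 75 pM USP25-His6 in 20 mM Tris pH 8.0, 3 mM BME, 0.03% BGG, 0.01% Triton X-100; top dose 25 μM.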

Structure (SMILES)	IC50 (format Example A-2) [nM]	IC50 (Example A-2) [nM]
Cc1ccc2c(N)c(C(=O)N[C@H]3CCc4c(F)c(N5CC6CNCC(C5)O6)cc(F)c4C3)sc2n1 (single isomer, unassigned) [Example 22-3]	> 2000	
Cc1ccc2c(N)c(C(=O)N[C@@H]3CCc4c(F)c(N5CC6CNCC(C5)O6)cc(F)c4C3)sc2n1 (single isomer, unassigned) [Example 22-4]	1 to 50	
Cc1ccc2c(N)c(C(=O)N[C@@H]3CCc4c(F)c(N5CC6CCC(C5)N6)cc(F)c4C3)sc2n1 (single isomer, unassigned) [Example 22-6]	> 2000	
CO[C@H]1CN(c2ccc3c(n2)CC[C@H](NC(=O)c2sc4nc(C)cnc4c2N)C3)C[C@@H]1N (single isomer, unassigned) [Example 23-1]	> 2000	
CO[C@H]1CN(c2ccc3c(n2)CC[C@@H](NC(=O)c2sc4nc(C)cnc4c2N)C3)C[C@@H]1N (single isomer, unassigned) [Example 23-2]	> 2000	
Cc1ccc2c(N)c(C(=O)N[C@H]3COc4cc(C5(F)CCNCC5)ccc4C3)sc2n1 [Example 8-1, (R)-3-Amino-N-(7-(4-fluoropiperidin-4-yl)chroman-3-yl)-6-methylthieno[2,3-b]pyridine-2-carboxamide]		50 to 200
Cc1ccc2c(N)c(C(=O)N[C@H]3COc4cc(N5CCNCC5)cc(F)c4C3)sc2n1 [Example 10-1, (R)-3-amino-N-(5-fluoro-7-(piperazin-1-yl)chroman-3-yl)-6-methylthieno[2,3-b]pyridine-2-carboxamide]		50 to 200
CO[C@@H]1CN(c2cc(F)c3c(c2)OC[C@H](NC(=O)c2sc4nc(C)ccc4c2N)C3)C[C@H]1N [Example 10-2, 3-amino-N-((R)-7-((3R,4R)-3-amino-4-methoxypyrrolidin-1-yl)-5-fluorochroman-3-yl)-6-methylthieno[2,3-b]pyridine-2-carboxamide]		200 to 2000
[2H]C1([2H])NC([2H])([2H])C([2H])([2H])N(c2cc(F)c3c(c2)OC[C@H](NC(=O)c2sc4nc(C)ccc4c2N)C3)C1([2H])[2H] [Example 10-4, (R)-3-amino-N-(5-fluoro-7-(piperazin-l-yl-2,2,3,3,5,5,6,6-d8)chroman-3-yl)-6-methylthieno[2,3-b]pyridine-2-carboxamide]		50 to 200
Cc1ccc2c(N)c(C(=O)N[C@@H]3COc4cc(N5CCNCC5)cc(F)c4C3)sc2n1 [Example 10-5, (S)-3-amino-N-(5-fluoro-7-(piperazin-1-yl)chroman-3-yl)-6-methylthieno[2,3-b]pyridine-2-carboxamide]		> 2000
Cc1ccc2c(N)c(C(=O)N[C@H]3COc4cc(N5CC6CNCC(C5)O6)cc(F)c4C3)sc2n1 [Example 10-6, N-((3R)-7-(9-oxa-3,7-diazabicyclo[3.3.1]nonan-3-yl)-5-fluorochroman-3-yl)-3-amino-6-methylthieno[2,3-b]pyridine-2-carboxamide]		50 to 200
Cc1cc(C)c2c(N)c(C(=O)N[C@H]3COc4cc(N5CC6CC(C5)N6)cc(F)c4C3)sc2n1 [Example 10-7, N-((3R)-7-(3,6-diazabicyclo[3.1.1]heptan-3-yl)-5-fluorochroman-3-yl)-3-amino-4,6-dimethylthieno[2,3-b]pyridine-2-carboxamide]		50 to 200
Cc1cnc2c(N)c(C(=O)N[C@H]3COc4cc(N5CC6CC(C5)N6)cc(F)c4C3)sc2n1 [Example 10-8, N-((3R)-7-(3,6-diazabicyclo[3.1.1]heptan-3-yl)-5-fluorochroman-3-yl)-7-amino-3-methylthieno[2,3-b]pyrazine-6-carboxamide]		50 to 200
Cc1cc(C)c2c(N)c(C(=O)N[C@H]3COc4cc(N5CCNCC5)cc(F)c4C3)sc2n1 [Example 10-9, (R)-3-amino-N-(5-fluoro-7-(piperazin-1-yl)chroman-3-yl)-4,6-dimethylthieno[2,3-b]pyridine-2-carboxamide]		50 to 200
Cc1cnc2c(N)c(C(=O)N[C@H]3COc4cc(N5CCNCC5)cc(F)c4C3)sc2n1 [Example 10-10, (R)-7-amino-N-(5-fluoro-7-(piperazin-1-yl)chroman-3-yl)-3-methylthieno[2,3-b]pyrazine-6-carboxamide]		50 to 200
COc1ccc2c(N)c(C(=O)N[C@H]3COc4cc(N5CCNCC5)cc(F)c4C3)sc2n1 [Example 10-11, (R)-3-amino-N-(5-fluoro-7-(piperazin-1-yl)chroman-3-yl)-6-methoxythieno[2,3-b]pyridine-2-carboxamide]		50 to 200
Cc1cnc2c(N)c(C(=O)N[C@H]3COc4cc(N5CC6CNCC(C5)O6)cc(F)c4C3)sc2n1 [Example 10-12, N-((3R)-7-(9-oxa-3,7-diazabicyclo[3.3.1]nonan-3-yl)-5-fluorochroman-3-yl)-7-amino-3-methylthieno[2,3-b]pyrazine-6-carboxamide]		1 to 50
Cc1cc(C)c2c(N)c(C(=O)N[C@H]3COc4cc(N5CC6CNCC(C5)O6)cc(F)c4C3)sc2n1 [Example 10-13, N-((3R)-7-(9-oxa-3,7-diazabicyclo[3.3.1]nonan-3-yl)-5-fluorochroman-3-yl)-3-amino-4,6-dimethylthieno[2,3-b]pyridine-2-carboxamide]		1 to 50
Cc1cc(C(F)(F)F)c2c(N)c(C(=O)N[C@H]3COc4cc(N5CCNCC5)cc(F)c4C3)sc2n1 [Example 10-14, (R)-3-amino-N-(5-fluoro-7-(piperazin-1-yl)chroman-3-yl)-6-methyl-4-(trifluoromethyl)thieno[2,3-b]pyridine-2-carboxamide]		50 to 200
Cc1ccc2c(N)c(C(=O)N(C)[C@H]3COc4cc(N5CCNCC5)cc(F)c4C3)sc2n1 [Example 10-15, 3-amino-N-[(3R)-5-fluoro-7-(piperazin-1-yl)-3,4-dihydro-2H-1-benzopyran-3-yl)-N,6-dimethylthieno[2,3-b]pyridine-2-carboxamide]		> 2000
Cc1ccc2c(N)c(C(=O)N[C@H]3COc4cc(N5CC6CCC(C5)N6)c(F)c(F)c4C3)sc2n1 [Example 13-3, N-((3R)-7-(3,8-diazabicyclo[3.2.1]octan-3-yl)-5,6-difluorochroman-3-yl)-3-amino-6-methylthieno[2,3-b]pyridine-2-carboxamide]	> 2000	
Cc1ccc2c(N)c(C(=O)N[C@@H]3COc4cc(N5CC6CCC(C5)N6)c(F)c(F)c4C3)sc2n1 [Example 13-4, N-((3S)-7-(3,8-diazabicyclo[3.2.1]octan-3-yl)-5,6-difluorochroman-3-yl)-3-amino-6-methylthieno[2,3-b]pyridine-2-carboxamide]	50 to 200	
Cc1ccc2c(N)c(C(=O)N[C@H]3COc4cc(N5CCNCC5)c(Cl)cc4C3)sc2n1 [Example 13-5, (R)-3-amino-N-(6-chloro-7-(piperazin-1-yl)chroman-3-yl)-6-methylthieno[2,3-b]pyridine-2-carboxamide]	> 2000	
Cc1ccc2c(N)c(C(=O)N[C@@H]3COc4c(ccc(N5CCNCC5)c4Cl)C3)sc2n1 [Example 13-8, (S)-3-amino-N-(8-chloro-7-(piperazin-1-yl)chroman-3-yl)-6-methylthieno[2,3-b]pyridine-2-carboxamide]	> 2000	
Cc1ccc2c(N)c(C(=O)N[C@H]3COc4c(ccc(N5CCNCC5)c4Cl)C3)sc2n1 [Example 13_7, (R)-3-amino-N-(8-chloro-7-(piperazin-1-yl)chroman-3-yl)-6-methylthieno[2,3-b]pyridine-2-carboxamide]	50 to 200	
Cc1ccc2c(N)c(C(=O)N[C@H]3COc4cc(N5CCNCC5)ncc4C3)sc2n1 [Example 16, (R)-3-Amino-6-methyl-N-(7-(piperazin-1-yl)-3,4-dihydro-2H-pyrano[3,2-c]pyridin-3-yl)thieno[2,3-b]pyridine-2-carboxamide]	200 to 2000	
Cc1ccc2c(N)c(C(=O)N[C@H]3COc4cc(N5CC6CCC(C5)N6)nc(F)c4C3)sc2n1 [Example 17, N-((3R)-7-(3,8-Diazabicyclo[3.2.1]octan-3-yl)-5-fluoro-3,4-dihydro-2H-pyrano[3,2-c]pyridin-3-yl)-3-amino-6-methylthieno[2,3-b]pyridine-2-carboxamide]	50 to 200	
Cc1ccc2c(N)c(C(=O)N[C@H]3COc4c(cnc(N5CC6CCC(C5)N6)c4F)C3)sc2n1 [Example 18, N-((3R)-7-(3,8-Diazabicyclo[3.2.1]octan-3-yl)-8-fluoro-3,4-dihydro-2H-pyrano[3,2-c]pyridin-3-yl)-3-amino-6-methylthieno[2,3-b]pyridine-2-carboxamide]	50 to 200	
